Source: patent publication US20060014193A1, “Nucleoside phosphoramidates and nucleoside phosphoramidases” (priority 2004, published 2006)

Tested on: BB2-1 (-HINT) cell lysates
Assay: 31P NMR phosphoramidase activity in cell lysates of hinT deletion strain
Type: biochemical, E. coli
Method: Phosphoramidase activity in cell lysates was measured by the ^1H-decoupling mode of phosphorus-31 NMR spectroscopy (Varian VAC-300 spectrometer), which can clearly distinguish the substrate, AMP-NH2, and the product, adenosine 5′-monophosphate (AMP). NMR spectrometry is suitable for quantitation by integration of the area under the peak, which is proportional to the amount of nuclei present. The relative ratio of peak areas can be used to calculate the amount of turnover corrected based on a standard curve.
Cell lysates from E. coli Tuner(DE3)pLacI cells (Novagen) were obtained by treatment with lysozyme (1 mg/ml) and the DNA was precipitated by protamine sulfate followed by centrifugation to remove cell debris. The supernatant was dialyzed extensively against Buffer A (20 mM Tris (pH 7.0); 1 mM EDTA; 1 mM DTT, 0.01 mM PMSF) to remove cellular phosphates and nucleotides. […] The reactions were terminated by snap freezing in a dry ice/acetone slush bath and lyophilized for 5 h. The samples were then dissolved in NMR buffer (600 μL, 50 mM EDTA, 20 mM HEPES (pH 7.2), and 1 mM TMP (trimethylphosphate, internal standard)) and the insoluble portion was spun down by centrifugation at 12,500×g for 5 min. A ^31P NMR spectrum was then collected for the supernatant. For the low pH control experiment, 10 mM AMP-NH2 in reaction buffer (500 μL, pH 2.0) was incubated at 37° C. for 12 h and the 31p signal was detected under the same conditions.
The E. coli hinT gene in strain BW25113 was disrupted as previously described (Datsenko & Wanner, 2000, PNAS USA, 97:6640-6645). Plasmid pKD3 and primers 7024 and 7025 (Table 2) were used for amplification of the chloramphenicol resistance marker (Cm^r). Stable chloramphenicol resistant transformants of BW25113 were tested by PCR with primers 7026 and 7027 to confirm correct recombination of the Cm^r marker into the hinT locus. A strain that tested positive by PCR was named BB1. Strain BB3 was constructed by removing the antibiotic resistance marker using Red recombinase as described previously (Datsenko & Wanner, supra). The hinT gene was amplified from the chromosomal DNA of E. coli strain BW25113 with primers 7328 and 7329. The product of this reaction was cloned into Bluescript SK+ using EcoRI and BamHI sites included in the primers' sequences. The resulting plasmid was named pB429. […] Plasmids pB432 and pB433 were obtained by cloning HindIII-EcoRI fragments containing wild type and H101A mutated alleles of hinT from plasmids pB429 and pB431 into plasmid pACYC184. All E. coli transformations were performed by electroporation.
To determine if E. coli hinT is solely responsible of the observed lysates' phosphoramidase activity, a mutant strain, BB1, in which the hinT gene was replace with the chloramphenicol resistance marker, was constructed. The phosphoramidase activities of the wild-type E. coli BL21 Star strain and the mutant strain lysates were determined (Table 3). […] (Table 2). Therefore, the adenosine phosphoramidase activity observed for E. coli cell lysates appears to be totally dependent on hinT.

In the case of `Nc1ncnc2c1ncn2[C@@H]1O[C@H](COP(N)(=O)O)[C@@H](O)[C@H]1O` [AMP-NH2, Adenosine 5′-monophosphoramidate], the “AMP formation with lysates of hinT deletion strain BB1” value is reported as “no AMP formation could be observed”, the “Specific activity” value (0.2 mg protein, 30 min) is reported as 0 nmol/mg/min and the “Specific activity” value (0.5 mg protein, 30 min) is reported as 0 nmol/mg/min. The “Specific activity” value (0.5 mg protein, 70 min) was 0 nmol/mg/min, the “Specific activity” value (0.5 mg protein, 1380 min) was 0 nmol/mg/min and the Average specific activity (average) was 0 nmol/mg/min.
